Measurements reported in ChEMBL document CHEMBL4251553, “Synthesis, anticancer evaluation and pharmacokinetic study of novel 10-O-phenyl ethers of dihydroartemisinin” (Eur J Med Chem, 2017).
Blank lines part the entries; values can stand above or below the molecule they belong to.

What was measured:
[1] = test system: NCI/ADR-RES; assay: Antiproliferative activity against human MCF7/ADR cells after 96 hrs by MTT assay; assay type: functional
[2] = Selectivity ratio of GI50 for human MCF7 cells to GI50 for human MCF7/ADR cells; assay type: functional
[3] = test system: MCF7; assay: Antiproliferative activity against human MCF7 cells after 96 hrs by MTT assay; assay type: functional; details: MCF7, 96 h
[4] = Apparent volume of distribution in Sprague-Dawley rat at 10 mg/kg, iv administered as single dose by LC-MS/MS analysis; assay type: ADME, organism-based; details: in vivo, read-out: Vz
[5] = Plasma concentration in Sprague-Dawley rat at 10 mg/kg, iv administered as single dose measured at 24 hrs post dosing by LC-MS/MS analysis; assay type: ADME, organism-based
[6] = test system: NB-4; assay: Antiproliferative activity against human NB4 cells after 96 hrs by MTT assay; assay type: functional; details: NB-4, 96 h
[7] = test system: U-937; assay: Antiproliferative activity against human U937 cells after 96 hrs by MTT assay; assay type: functional; details: U-937, 96 h
[8] = AUC (0 to infinity) in Sprague-Dawley rat at 10 mg/kg, iv administered as single dose by LC-MS/MS analysis; assay type: ADME, organism-based; parameters: dose 10 mg/kg, route intravenous, time infinity; details: in vivo
[9] = Plasma concentration in Sprague-Dawley rat at 10 mg/kg, iv administered as single dose measured at 8 hrs post dosing by LC-MS/MS analysis; assay type: ADME, organism-based
[10] = test system: K562; assay: Antiproliferative activity against human K562 cells after 96 hrs by MTT assay; assay type: functional; details: K562, 96 h
[11] = Plasma concentration in Sprague-Dawley rat at 10 mg/kg, iv administered as single dose measured at 4 hrs post dosing by LC-MS/MS analysis; assay type: ADME, organism-based
[12] = test system: MDA-MB-231; assay: Antiproliferative activity against human MDA-MB-231 cells after 96 hrs by MTT assay; assay type: functional; details: MDA-MB-231, 96 h
[13] = AUC (0 to t) in Sprague-Dawley rat at 10 mg/kg, iv administered as single dose by LC-MS/MS analysis; assay type: ADME, organism-based; details: in vivo
[14] = Plasma concentration in Sprague-Dawley rat at 10 mg/kg, iv administered as single dose measured at 0.083 hrs post dosing by LC-MS/MS analysis; assay type: ADME, organism-based
[15] = Apparent terminal half life in Sprague-Dawley rat at 10 mg/kg, iv administered as single dose by LC-MS/MS analysis; assay type: ADME, organism-based; details: in vivo, read-out: betat1/2(app) (converted)
[16] = test system: LNCaP; assay: Antiproliferative activity against human LNCAP cells after 96 hrs by MTT assay; assay type: functional
[17] = MRT (0 to infinity) in Sprague-Dawley rat at 10 mg/kg, iv administered as single dose by LC-MS/MS analysis; assay type: ADME, organism-based; details: in vivo
[18] = Plasma concentration in Sprague-Dawley rat at 10 mg/kg, iv administered as single dose measured at 0.5 hrs post dosing by LC-MS/MS analysis; assay type: ADME, organism-based
[19] = Plasma concentration in Sprague-Dawley rat at 10 mg/kg, iv administered as single dose measured at 2 hrs post dosing by LC-MS/MS analysis; assay type: ADME, organism-based
[20] = Plasma concentration in Sprague-Dawley rat at 10 mg/kg, iv administered as single dose measured at 0.25 hrs post dosing by LC-MS/MS analysis; assay type: ADME, organism-based
[21] = Plasma concentration in Sprague-Dawley rat at 10 mg/kg, iv administered as single dose measured at 1 hr post dosing by LC-MS/MS analysis; assay type: ADME, organism-based
[22] = test system: PC-3; assay: Antiproliferative activity against human PC3 cells after 96 hrs by MTT assay; assay type: functional; details: PC-3, 96 h
[23] = Cmax in Sprague-Dawley rat at 10 mg/kg, iv administered as single dose by LC-MS/MS analysis; assay type: ADME, organism-based; parameters: dose 10 mg/kg, route intravenous; details: in vivo
[24] = test system: HL-60; assay: Antiproliferative activity against human HL60 cells after 96 hrs by MTT assay; assay type: functional; details: HL-60, 96 h
[25] = Apparent clearance in Sprague-Dawley rat at 10 mg/kg, iv administered as single dose by LC-MS/MS analysis; assay type: ADME, organism-based; details: in vivo, read-out: CL(app) (converted)

GI50 [3]: 29100 nM
Structure (SMILES): CC(=O)N1N=C(c2ccc(O)cc2)CC1c1ccccc1 (stereo unspecified)
GI50 [1]: 38000 nM
RatioGI50 [2]: 0.77

Structure (SMILES): CC(=O)N1N=C(c2ccc(O[C@H]3O[C@@H]4O[C@@]5(C)CC[C@H]6[C@H](C)CC[C@@H]([C@H]3C)[C@@]46OO5)cc2)CC1c1ccccc1 (stereo partly specified)
Vd [4]: 13.7 L/kg
concentration at 24 h [5]: 6.73 ng/mL
GI50 [6]: 29 nM
GI50 [1]: 61 nM
GI50 [7]: 40 nM
RatioGI50 [2]: 2.1
AUC(0-inf) [8]: 4170 ng·h/mL
GI50 [3]: 130 nM
concentration at 8 h [9]: 63.9 ng/mL
GI50 [10]: 73 nM
concentration at 4 h [11]: 224 ng/mL
GI50 [12]: 420 nM
AUC(0-t) [13]: 4140 ng·h/mL
concentration at 0.083 h [14]: 2430 ng/mL
half-life [15]: 3.87 h
GI50 [16]: 93 nM
MRT inf [17]: 3.07 h
concentration at 0.5 h [18]: 1260 ng/mL
concentration at 2 h [19]: 523 ng/mL
concentration at 0.25 h [20]: 1900 ng/mL
concentration at 1 h [21]: 935 ng/mL
GI50 [22]: 110 nM
Cmax [23]: 2430 ng/mL
GI50 [24]: 25 nM
clearance [25]: 41.3 mL/min/kg

Structure (SMILES): COc1ccc(-c2cc(-c3ccc(O[C@H]4O[C@@H]5O[C@@]6(C)CC[C@H]7[C@H](C)CC[C@@H]([C@H]4C)[C@@]57OO6)cc3)n[nH]2)c(OC)c1
GI50 [1]: 33 nM
RatioGI50 [2]: 10
GI50 [3]: 330 nM
GI50 [12]: 670 nM

Structure (SMILES): C[C@H]1[C@H](Oc2ccc(-c3cc(-c4ccc(Br)cc4)[nH]n3)cc2)O[C@@H]2O[C@@]3(C)CC[C@H]4[C@H](C)CC[C@@H]1[C@@]24OO3
GI50 [1]: 30 nM
RatioGI50 [2]: 14.7
GI50 [3]: 440 nM
GI50 [12]: 550 nM

Structure (SMILES): COc1ccc(-c2cc(-c3ccc(O[C@H]4O[C@@H]5O[C@@]6(C)CC[C@H]7[C@H](C)CC[C@@H]([C@H]4C)[C@@]57OO6)cc3)n[nH]2)cc1
GI50 [1]: 28 nM
RatioGI50 [2]: 20
GI50 [3]: 560 nM
GI50 [12]: 870 nM

Structure (SMILES): CC(=O)N1N=C(c2ccc(O[C@H]3O[C@@H]4O[C@@]5(C)CC[C@H]6[C@H](C)CC[C@@H]([C@H]3C)[C@@]46OO5)cc2)CC1c1ccc(Cl)cc1 (stereo partly specified)
GI50 [1]: 30 nM
RatioGI50 [2]: 7.3
GI50 [3]: 220 nM
GI50 [12]: 160 nM

Structure (SMILES): COc1ccc(-c2cc(-c3ccc(O[C@@H]4O[C@@H]5O[C@@]6(C)CC[C@H]7[C@H](C)CC[C@@H]([C@H]4C)[C@@]57OO6)cc3)n[nH]2)cc1
GI50 [1]: 52 nM
RatioGI50 [2]: 8.5
GI50 [3]: 440 nM
GI50 [12]: 1420 nM

Structure (SMILES): COc1ccc(-c2cc(-c3ccc(O[C@@H]4O[C@@H]5O[C@@]6(C)CC[C@H]7[C@H](C)CC[C@@H]([C@H]4C)[C@@]57OO6)cc3)n[nH]2)c(OC)c1
GI50 [1]: 41 nM
RatioGI50 [2]: 12.2
GI50 [3]: 500 nM
GI50 [12]: 760 nM

Structure (SMILES): COc1ccc(C2CC(c3ccc(O[C@@H]4O[C@@H]5O[C@@]6(C)CC[C@H]7[C@H](C)CC[C@@H]([C@H]4C)[C@@]57OO6)cc3)=NN2C(C)=O)cc1 (stereo partly specified)
GI50 [1]: 51 nM
RatioGI50 [2]: 5.9
GI50 [3]: 300 nM
GI50 [12]: 990 nM

Structure (SMILES): COc1ccc(C2CC(c3ccc(O[C@H]4O[C@@H]5O[C@@]6(C)CC[C@H]7[C@H](C)CC[C@@H]([C@H]4C)[C@@]57OO6)cc3)=NN2C(C)=O)c(OC)c1 (stereo partly specified)
GI50 [1]: 25 nM
RatioGI50 [2]: 20
GI50 [3]: 500 nM
GI50 [12]: 240 nM

Structure (SMILES): CC(=O)N1N=C(c2ccc(O[C@@H]3O[C@@H]4O[C@@]5(C)CC[C@H]6[C@H](C)CC[C@@H]([C@H]3C)[C@@]46OO5)cc2)CC1c1ccc(Cl)cc1 (stereo partly specified)
GI50 [1]: 35 nM
RatioGI50 [2]: 14.3
GI50 [3]: 500 nM
GI50 [12]: 400 nM

GI50 [7]: 910 nM
GI50 [10]: > 10000 nM
GI50 [12]: 12600 nM
GI50 [16]: > 10000 nM
GI50 [22]: > 10000 nM
GI50 [24]: 191 nM
Structure (SMILES): C[C@H]1[C@@H](O)O[C@@H]2O[C@@]3(C)CC[C@H]4[C@H](C)CC[C@@H]1[C@@]24OO3 [ARTENIMOL]
GI50 [6]: 151 nM
RatioGI50 [2]: 10

Structure (SMILES): CC(=O)N1N=C(c2ccc(O[C@H]3O[C@@H]4O[C@@]5(C)CC[C@H]6[C@H](C)CC[C@@H]([C@H]3C)[C@@]46OO5)cc2)CC1c1ccc(Br)cc1 (stereo partly specified)
GI50 [1]: 26 nM
RatioGI50 [2]: 11.5
GI50 [3]: 300 nM
GI50 [12]: 370 nM
